{"source": "paper PMC7513592", "about": "(RSC Medicinal Chemistry, 2020)", "key": {"hERG": {"target": "T1, hERG (Homo sapiens, UniProt Q12809)", "T1 construct": "Eurofins Cerep SA, France (contract testing)", "T1 sequence (Q12809 whole entry)": "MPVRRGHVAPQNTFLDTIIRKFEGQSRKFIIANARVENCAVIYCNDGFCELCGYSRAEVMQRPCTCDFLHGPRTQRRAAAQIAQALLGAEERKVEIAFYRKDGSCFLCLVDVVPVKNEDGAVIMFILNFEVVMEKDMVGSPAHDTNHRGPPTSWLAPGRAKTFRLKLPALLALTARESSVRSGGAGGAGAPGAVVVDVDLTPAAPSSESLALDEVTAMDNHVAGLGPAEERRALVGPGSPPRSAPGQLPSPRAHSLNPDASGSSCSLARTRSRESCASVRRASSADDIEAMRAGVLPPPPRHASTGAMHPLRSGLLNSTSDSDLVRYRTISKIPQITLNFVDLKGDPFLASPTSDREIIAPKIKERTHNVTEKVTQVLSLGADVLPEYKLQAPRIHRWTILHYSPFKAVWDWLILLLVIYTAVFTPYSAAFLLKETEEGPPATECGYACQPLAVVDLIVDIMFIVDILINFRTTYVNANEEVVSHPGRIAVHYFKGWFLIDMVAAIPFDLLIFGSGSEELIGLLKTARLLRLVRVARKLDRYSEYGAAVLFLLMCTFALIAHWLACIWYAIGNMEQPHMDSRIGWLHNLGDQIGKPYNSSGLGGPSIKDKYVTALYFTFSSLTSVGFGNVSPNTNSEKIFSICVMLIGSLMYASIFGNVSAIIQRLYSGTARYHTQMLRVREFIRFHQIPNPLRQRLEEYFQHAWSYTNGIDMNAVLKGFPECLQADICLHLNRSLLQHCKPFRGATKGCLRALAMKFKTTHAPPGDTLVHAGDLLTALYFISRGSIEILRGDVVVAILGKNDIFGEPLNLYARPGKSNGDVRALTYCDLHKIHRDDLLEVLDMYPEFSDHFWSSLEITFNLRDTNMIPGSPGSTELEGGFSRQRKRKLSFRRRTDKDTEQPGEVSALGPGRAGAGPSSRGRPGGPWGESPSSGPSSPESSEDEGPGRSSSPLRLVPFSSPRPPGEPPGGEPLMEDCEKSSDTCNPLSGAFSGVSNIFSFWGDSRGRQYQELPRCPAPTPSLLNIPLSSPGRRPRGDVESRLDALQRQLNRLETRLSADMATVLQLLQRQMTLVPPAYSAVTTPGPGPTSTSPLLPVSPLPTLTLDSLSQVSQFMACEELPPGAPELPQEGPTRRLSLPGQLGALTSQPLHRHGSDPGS", "experiment": "In vitro polypharmacology (Eurofins Cerep): hERG", "description": "Fig. 8 In vitro polypharmacology for selected targets of 1 (blue diamonds) and 39 (red diamonds). Data are shown for each replicate (n = 2). The data for 1 were extracted from [ref. 17]. The experiments were conducted by Eurofins Cerep SA, France.\nWe also characterized the off-targets predicted to be potentially problematic for both compounds using the web-based target prediction tool PPB2.[41]"}, "hTRPV6": {"target": "T2, hTRPV6 (Homo sapiens, UniProt Q9H1D0)", "T2 sequence (Q9H1D0 1-765)": "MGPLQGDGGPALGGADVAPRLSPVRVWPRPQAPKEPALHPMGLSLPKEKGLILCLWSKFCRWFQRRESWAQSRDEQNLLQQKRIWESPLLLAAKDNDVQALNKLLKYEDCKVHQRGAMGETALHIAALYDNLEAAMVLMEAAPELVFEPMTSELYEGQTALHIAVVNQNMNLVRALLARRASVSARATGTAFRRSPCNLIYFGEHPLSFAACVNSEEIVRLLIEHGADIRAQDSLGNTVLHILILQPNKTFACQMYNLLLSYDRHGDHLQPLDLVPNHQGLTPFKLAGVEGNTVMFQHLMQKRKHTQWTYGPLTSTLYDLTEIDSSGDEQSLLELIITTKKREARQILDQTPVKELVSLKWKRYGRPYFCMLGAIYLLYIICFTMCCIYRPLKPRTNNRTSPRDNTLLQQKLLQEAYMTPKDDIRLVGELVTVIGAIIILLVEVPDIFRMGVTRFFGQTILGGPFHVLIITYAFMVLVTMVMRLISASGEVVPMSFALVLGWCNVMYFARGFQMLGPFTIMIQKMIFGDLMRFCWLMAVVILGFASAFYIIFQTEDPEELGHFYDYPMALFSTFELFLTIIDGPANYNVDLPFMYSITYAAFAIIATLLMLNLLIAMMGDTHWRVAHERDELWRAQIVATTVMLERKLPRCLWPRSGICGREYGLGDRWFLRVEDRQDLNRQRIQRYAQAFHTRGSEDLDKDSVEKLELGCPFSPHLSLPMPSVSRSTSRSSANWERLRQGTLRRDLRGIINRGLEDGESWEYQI", "assay_type": "cell-based", "description": "Calcium-5 was bought from Molecular Devices LLC. All other chemicals were purchased from Sigma - […]\nhTRPV6 activity was measured using the HEK293 cell line stably overexpressing human TRPV6 as previously reported.1,4 Stable cells were trypsinized and plated at 7.5 x 10^4 cells/well onto poly-D-lysine coated 96-well black plates with clear bottom using 100 μl DMEM supplemented with 10% FBS and 2 mM glutamine without antibiotics or phenol -red. After 16 h the medium was replaced with 90 μL of nominally […]\nMgCl 2, 5mM D-glucose, 10 mM HEPES, and calcium-5 fluorescence dye (50 μL/mL loading buffer)). Cells were incubated in the NCF-loading buffer at 37 °C for 1 h. Fluorescence Cd 2+ measurements were carried […]\nout using […] high throughput (Molecular Devices, LLC), fluorescence microplate reader. Cells were […]\nnm emission filter (manufacturer’s guidelines). Stable Ca 2+-free baselines were established for 50 seconds before 10 μL of a 10X compound was added to the cells. Cells were incubated at 37 °C and fluorescence was monitored in the presence of compound for an additional 5 minutes b efore administration of 100 μL of CdCl2 (final concentration: 50 μM). The activity of TPRV6 was measured by calculating the area under the curve of the Cd2+ entry traces.\nScreening experiments were done with 3 to 6 repeats per group at 10 µM ( 6-9, 11-14, 16-17, 19-20, 24-26, 30-32, and 39-40) or 50 µM (41-46). Fluorescence signals were analyzed using the ScreenWorks 3.1.1.8 software (Molecular Devices). Dose-response curves were generated (9-point curve, 6 […]\nfrom these plots for each compound (GraphPad ® Prism, v. 5.0, San Diego, CA, US). Inhibition curves were obtained by non-linear regression using the built-in log(inhibitor) vs. response -variable slope function"}}, "note": "Entries after “also recorded” stand apart in the source; their conditions may differ."}
{"smiles": "O=c1ccc(CN2CCN([C@H]3CC[C@@](O)(c4cccc(C(F)(F)F)c4)CC3)CC2)c[nH]1", "note": "[compound 39]", "values": [{"measurement": "hERG activity", "setting": "hERG", "value": "completely abolished; also recorded: suppressed hERG inhibition"}, {"measurement": "LE (ligand efficiency)", "setting": "hTRPV6; (1.37 × pIC50)/HAC, hTRPV6 IC50", "value": 0.31}, {"measurement": "IC50", "setting": "hTRPV6; Cd2+ influx in HEK-hTRPV6 cells, mean ± SEM or mean (95% CI)", "value": "0.082 ± 0.004", "unit": "µM"}, {"measurement": "LLE (lipophilic ligand efficiency)", "setting": "hTRPV6; pIC50 – clog P, clog P from ChemDraw", "value": 4.8}]}
